Measured values from the NIST ThermoML archive (doi:10.1021/je700245a).

Experiment: xn = mol fraction of the nth substance listed
Conditions: 101 kPa, Liquid

CN(CCO)CCO [N-methyldiethanolamine] + CCO
speed of sound [m/s], Sing-around technique in a fixed-path interferometer
Conditions	288.15 K	293.15 K	298.15 K	303.15 K	308.15 K	313.15 K
x1 = 0.0049	1183.1	1166	1149.2	1132.3	1114.8	1098.8
x1 = 0.0253	1201.7	1184.9	1168	1151.2	1134.5	1117.9
x1 = 0.0524	1222.5	1205.9	1189.3	1172.7	1156.3	1139.8
x1 = 0.102	1260.9	1244.5	1228.1	1211.8	1195.6	1179.5
x1 = 0.1629	1301	1286	1272.9	1257.3	1241.5	1225.8
x1 = 0.2474	1353	1338	1325	1310	1293	1278
x1 = 0.3713	1415	1399.7	1384.6	1369.4	1354.1	1339
x1 = 0.4806	1460	1444	1429.2	1414	1398.8	1383.7
x1 = 0.5506	1486	1470	1457	1439	1423.8	1408.7
x1 = 0.7035	1536	1520	1500	1484.3	1468.9	1453.6
x1 = 0.7916	1557	1542	1522	1505.6	1490.3	1475.1
x1 = 0.8688	1573.2	1557.7	1538	1520.8	1506.2	1491.5
x1 = 0.9415	1588.4	1572.9	1553	1535	1520.4	1506.1
x1 = 1	1598.8	1583.1	1564	1546	1531	1516

mass density [kg/m3]
Conditions	288.15 K	293.15 K	298.15 K	303.15 K	308.15 K	313.15 K
x1 = 0.0049	797.34	793.08	788.79	784.48	779.2	775.41
x1 = 0.0253	810.93	806.7	802.07	797.45	792.51	788.32
x1 = 0.0524	826.23	822.03	817.31	812.97	807.85	803.95
x1 = 0.102	855.32	850.46	845.79	841.06	835.99	831.61
x1 = 0.1629	883.86	879	874.36	869.83	864.64	860.34
x1 = 0.2474	916.48	911.75	907.18	902.4	897.2	892.65
x1 = 0.3713	952.15	947.5	942.7	938.24	933.17	928.65
x1 = 0.4806	977.2	973.1	968.28	963.57	958.75	954
x1 = 0.5506	991.1	986.7	982.08	977.52	972.75	967.98
x1 = 0.7035	1013.7	1009.24	1005.04	1000.62	996.08	991.6
x1 = 0.7916	1024.1	1019.88	1015.3	1011.24	1006.79	1002.49
x1 = 0.8688	1032.69	1028.4	1024.2	1019.64	1015.81	1011.97
x1 = 0.9415	1038.68	1034.96	1031.19	1027.42	1023.63	1019.82
x1 = 1	1044.32	1040.6	1036.83	1033.06	1029.26	1025.45

CCO [ethanol] + CN(CCO)CCO
Sing-around technique in a fixed-path interferometer, x2 = 0
Conditions	speed of sound [m/s]
288.15 K	1179
293.15 K	1162
298.15 K	1144.9
303.15 K	1128
308.15 K	1111.1
313.15 K	1094.3

x2 = 0
Conditions	mass density [kg/m3]
288.15 K	793.6
293.15 K	789.35
298.15 K	785.06
303.15 K	780.76
308.15 K	776
313.15 K	772.03

CCO [ethanol] + OCCN(CCO)CCO
x2 = 0
Conditions	mass density [kg/m3]	speed of sound [m/s]
288.15 K	793.6	1179
293.15 K	789.35	1162
298.15 K	785.06	1144.9
303.15 K	780.76	1128
308.15 K	776	1111.1
313.15 K	772.03	1094.3

OCCN(CCO)CCO [triethanolamine] + CCO
Conditions	mass density [kg/m3]	speed of sound [m/s]
288.15 K, x1 = 0.0075	799.61	1185.2
288.15 K, x1 = 0.0184	808.53	1193.4
288.15 K, x1 = 0.0304	818	1202.1
288.15 K, x1 = 0.0622	840.61	1225.5
288.15 K, x1 = 0.1385	889.41	1277
288.15 K, x1 = 0.2275	935.37	1333.2
288.15 K, x1 = 0.335	979.49	1397
288.15 K, x1 = 0.4675	1021.75	1453.1
288.15 K, x1 = 0.6413	1064.29	1528
288.15 K, x1 = 0.779	1091.59	1558.4
288.15 K, x1 = 0.8537	1104.43	1597.9
288.15 K, x1 = 0.9328	1116.76	1617.3
288.15 K, x1 = 1	1126.19	1640.5
293.15 K, x1 = 0.0075	795.43	1168.3
293.15 K, x1 = 0.0184	804.51	1176.9
293.15 K, x1 = 0.0304	813.73	1185.9
293.15 K, x1 = 0.0622	836.37	1210
293.15 K, x1 = 0.1385	885.58	1262.7
293.15 K, x1 = 0.2275	931.77	1320
293.15 K, x1 = 0.335	976.06	1385
293.15 K, x1 = 0.4675	1018.53	1442.5
293.15 K, x1 = 0.6413	1061.37	1516.6
293.15 K, x1 = 0.779	1088.73	1546.8
293.15 K, x1 = 0.8537	1101.67	1585.3
293.15 K, x1 = 0.9328	1114.01	1604.6
293.15 K, x1 = 1	1123.42	1625.6
298.15 K, x1 = 0.0075	791.34	1151.4
298.15 K, x1 = 0.0184	800.35	1160.4
298.15 K, x1 = 0.0304	809.59	1170
298.15 K, x1 = 0.0622	832.35	1194.4
298.15 K, x1 = 0.1385	881.74	1248.6
298.15 K, x1 = 0.2275	928.14	1307.1
298.15 K, x1 = 0.335	972.67	1373.1
298.15 K, x1 = 0.4675	1015.52	1431.6
298.15 K, x1 = 0.6413	1058.61	1505.9
298.15 K, x1 = 0.779	1086.14	1536.4
298.15 K, x1 = 0.8537	1099.23	1574.3
298.15 K, x1 = 0.9328	1111.63	1593.8
298.15 K, x1 = 1	1120.99	1614.5
303.15 K, x1 = 0.0075	786.78	1134.6
303.15 K, x1 = 0.0184	796.27	1143.9
303.15 K, x1 = 0.0304	805.5	1153.8
303.15 K, x1 = 0.0622	828.41	1178.9
303.15 K, x1 = 0.1385	877.88	1234.5
303.15 K, x1 = 0.2275	924.44	1294.3
303.15 K, x1 = 0.335	969.17	1361.4
303.15 K, x1 = 0.4675	1012.27	1420.9
303.15 K, x1 = 0.6413	1055.67	1496
303.15 K, x1 = 0.779	1083.38	1526.6
303.15 K, x1 = 0.8537	1096.33	1564.5
303.15 K, x1 = 0.9328	1108.88	1584.2
303.15 K, x1 = 1	1118.21	1604.5
308.15 K, x1 = 0.0075	782.53	1117.9
308.15 K, x1 = 0.0184	791.61	1127.4
308.15 K, x1 = 0.0304	801.05	1137.7
308.15 K, x1 = 0.0622	824.11	1163.4
308.15 K, x1 = 0.1385	873.56	1220.4
308.15 K, x1 = 0.2275	920.24	1281.5
308.15 K, x1 = 0.335	965.2	1349.9
308.15 K, x1 = 0.4675	1008.69	1410.5
308.15 K, x1 = 0.6413	1052.55	1486.6
308.15 K, x1 = 0.779	1080.43	1517.4
308.15 K, x1 = 0.8537	1093.46	1555.6
308.15 K, x1 = 0.9328	1106.09	1575.4
308.15 K, x1 = 1	1115.38	1595.5
313.15 K, x1 = 0.0075	778.51	1101.2
313.15 K, x1 = 0.0184	787.72	1111.1
313.15 K, x1 = 0.0304	797.32	1121.6
313.15 K, x1 = 0.0622	820.47	1148
313.15 K, x1 = 0.1385	869.89	1206.4
313.15 K, x1 = 0.2275	916.68	1268.8
313.15 K, x1 = 0.335	961.76	1338.4
313.15 K, x1 = 0.4675	1005.44	1400.1
313.15 K, x1 = 0.6413	1049.55	1477.3
313.15 K, x1 = 0.779	1077.53	1508.5
313.15 K, x1 = 0.8537	1090.66	1547
313.15 K, x1 = 0.9328	1103.23	1567.1
313.15 K, x1 = 1	1112.57	1586
